The text below walks through data of patent US20040132830A1, “Triphenylmethane kinesin inhibitors” (priority 2001, published 2004).

One test relates to A549 cells. To be noted: cited from earlier work.
Test [1] concerns Skov-3 cells (human ovarian cancer). Put plainly: FACS analysis of cell cycle stage by DNA content (mitotic arrest). The format is cell-based. The note with it: treated 24 hours, paclitaxel at 10 nM. The protocol:
FACS analysis to determine cell cycle stage by measuring DNA content was performed as follows. Skov-3 cells (human ovarian cancer) were split 1:10 for plating in 10 cm dishes and grown to subconfluence with RPMI 1640 medium containing 5% fetal bovine serum (FBS). The cells were then treated with either 10 nM paclitaxel, the test compound or 0.25% DMSO (vehicle for compounds) for 24 hours. Cells were then rinsed off the plates with PBS containing 5 mM EDTA, pelleted, washed once in PBS containing 1% FCS, and then fixed overnight in 85% ethanol at 4° C. Before analysis, the cells were pelleted, washed once, and stained in a solution of 10 μg propidium iodide and 250 μg of ribonuclease (RNAse) A per milliliter at 37° C. for half an hour. Flow cytometry analysis was performed on a Becton-Dickinson FACScan, and data from 10,000 cells per sample was analyzed with Modfit software.
(Flow cytometry measures light scatter and fluorescence of single cells or particles in a stream.)

A word on the GI50: it is the concentration that inhibits growth by half. Take `O=c1[nH]cc(F)c(=O)[nH]1` [5-fluorouracil]: the 50% growth inhibitory concentration (GI50) with A549 cells is 1000 nM.

For the compound `COc1cccc2c1C(=O)c1c(O)c3c(c(O)c1C2=O)C[C@@](O)(C(=O)CO)C[C@@H]3O[C@H]1C[C@H](N)[C@H](O)[C@H](C)O1` [doxorubicin], the GI50 in the test on A549 cells is 63 nM.

For the compound `NC(=O)NO` [hydroxyurea], the 50% growth inhibitory concentration (GI50) with A549 cells is 500000 nM.

As for `CC(=O)O[C@H]1C(=O)[C@@]2(C)[C@H]([C@H](OC(=O)c3ccccc3)[C@]3(O)C[C@H](OC(=O)[C@H](O)[C@@H](NC(=O)c4ccccc4)c4ccccc4)C(C)=C1C3(C)C)[C@]1(OC(C)=O)CO[C@@H]1C[C@@H]2O` [paclitaxel], the “shift of cell population between cell cycle stages (DNA content)” value in test [1] is recorded as “caused a shift in the population of cells from a G0/G1 cell cycle stage (2 n DNA content) to a G2/M cell cycle stage (4 n DNA content)”. Also, the GI50 with A549 cells was 4 nM.
